Data set [1] deals with T1, human CCK2R (Homo sapiens, UniProt P32239).
T1 construct: expressed in transfected cells; host or cells: A431 human epidermoid carcinoma cells (A431-CCK2R), plasmid pCR3.1, provided by Dr. Luigi Aloj
T1 sequence (P32239 1-447): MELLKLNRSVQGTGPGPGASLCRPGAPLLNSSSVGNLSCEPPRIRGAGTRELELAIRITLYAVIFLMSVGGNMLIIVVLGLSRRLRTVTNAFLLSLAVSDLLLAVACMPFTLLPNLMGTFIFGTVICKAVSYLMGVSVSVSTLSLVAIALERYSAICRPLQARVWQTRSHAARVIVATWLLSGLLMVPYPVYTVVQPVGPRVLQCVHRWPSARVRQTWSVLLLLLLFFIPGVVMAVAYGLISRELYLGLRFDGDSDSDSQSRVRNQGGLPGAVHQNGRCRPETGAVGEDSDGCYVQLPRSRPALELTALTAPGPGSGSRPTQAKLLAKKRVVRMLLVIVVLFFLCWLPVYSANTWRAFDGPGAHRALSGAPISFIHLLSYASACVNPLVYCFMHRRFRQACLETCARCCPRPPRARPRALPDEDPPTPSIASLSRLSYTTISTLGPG
In words: CCK2R competition binding assay against [125I]Tyr12-gastrin-I on A431-CCK2R cells. The conditions noted are these: displacement of [125I]Tyr12-gastrin-I, A431-CCK2R cells, 1 h at RT; read-out: IC50. As for the experimental part: Affinity for CCK2R was studied in A431 human epidermoid carcinoma cells stably transfected with the plasmid pCR3.1 containing the full coding sequence for the human CCK2R (A431-CCK2R) kindly provided by Dr. Luigi Aloj (Aloj L et al., J Nucl Med 2004, 45: 485-494). […] Radioiodination of gastrin-1 was carried out using the chloramine-T method. Non-carrier-added [^125I-Tyr^12]gastrind was obtained by HPLC purification and stored in aliquots at −20° C. Binding assays were carried out in 96-well filter plates (MultiScreenHTS-FB, Merck Group, Darmstadt, Germany) pretreated with 10 mM TRIS/139 mM NaCl pH 7.4 (2×250 μl). For the assay a number of 200,000-400,000 A431-CCK2R cells per well was prepared in 35 mM HEPES buffer pH 7.4 containing 10 mM MgCl2, 14 μM bacitracin and 0.5% BSA (a hypotonic solution disturbing the integrity of the cell membranes). The cells were incubated in triplicates with increasing concentrations of the peptidomimetics (0.0003 to 10,000 nM, for example 0.001 to 1000 nM) and [^125I-Tyr^12]gastrin-I (20,000-60,000 cpm) for 1 h at RT. Incubation was interrupted by filtration of the medium and rapid rinsing with ice-cold 10 mM TRIS/139 mM NaCl pH 7.4 (2×200 μl) and the filters were counted in the gamma-counter. Half maximal inhibitory concentration (IC50) values were calculated following nonlinear regression with Origin software (Microcal Origin 6.1, Northampton, MA) and a representative assay was chosen for comparison.
Background: In a radioligand displacement assay an active substance lowers the binding of a labelled ligand.

For data set [2] the following is noted: cited from earlier work.

Where a SMILES comes first, the peptide text is derived from it. [ ]: non-standard residue; d: D form. The star is where a group is joined. DOTA = O=C(O)CN1CCN(CC(=O)O)CCN(CC(=O)*)CCN(CC(=O)O)CC1

For orientation: IC50 means the concentration that gives 50% inhibition.

With `CSCC[C@H](NC(=O)[C@H](Cc1c[nH]c2ccccc12)NC(=O)CNC(=O)[C@H](Cc1ccc(O)cc1)NC(=O)[C@H](C)NC(=O)[C@@H](CCC(=O)O)NC(=O)CN1CCN(CC(=O)O)CCN(CC(=O)O)CCN(CC(=O)O)CC1)C(=O)N[C@@H](CC(=O)O)C(=O)N[C@@H](Cc1ccccc1)C(N)=O` [DOTA-MG11, [1,4,7,10-tetraazacyclodocecan-1,4,7,10-tetraacetic acid^0,D-Glu^1,DesGlu^2-6]minigastrin, reference compound] ({DOTA}-[dE]AYGWMDF-NH2), the IC50 in data set [1] was 0.9 ± 0.5 nM. In data set [2], the “biological half-life in vivo” value is given as “below five”.
